Source: patent publication US10513723B2 (AMGEN INC., priority 2014, dated 2019)

Key:
[1] = tested on: Cell line H (CHO cells expressing recombinant antibody); experiment: Small scale mock perfusion, % high mannose (HILIC glycan map) of the expressed recombinant glycoprotein; assay type: cell-based, Chinese hamster
Protocol: Cell lines H was used in this study. Cells were maintained in 3 L Erlenmeyer shake flasks (Corning Life Sciences, Lowell, Mass.) with 1 L working volume and cultivated under standard humidified condition at 36° C., 5% CO2, and shaken at 70 rpm in an automatic CO2 incubator (Thermo Fisher Scientific, Waltham, Mass.). Cells were sub-cultured in a selective growth media containing a 500 nM concentration of methotrexate (MTX) every four days, and subsequently transferred, inoculated and cultured in a growth media for four days before being seeded in a 24 wells plate for the experiments described below. […] Different N-glycan species of antibodies were analyzed by hydrophilic-interaction liquid chromatography (HILIC). The purified antibodies were digested by N-glycosidase F (New England BioLabs, Ipswich, Mass.) at 37° C. for 2 hours to release the glycans. The released glycans were labeled with 2-aminobenzoic acid and cleaned up using GlycoClean S cartridges (Prozyme, […], Calif.). Purified glycans were then desalted and reconstituted in water for assay. HILIC chromatography was performed with a 100 mm×2.1 mm i.d BEH Glycan column using UPLC (Waters Corporation, Milford, Mass.) and the eluted glycans were detected, identified, and qualified by a fluorescence detector based on different elution times of different glycans.

[2] = tested on: Cell line I (expresses an IgG2 antibody); experiment: Fed-batch 2 L bioreactor culture, % high mannose by peptide mapping glycan profiling; assay type: cell-based; settings: single supplement of 0.1 g/L L-ornithine monohydrochloride on day 0 vs ornithine-free control; samples days 6, 8 and 12; FIG. 8
Protocol: Glycan profiling was performed by peptide mapping. […] Specifically, about 50-70 μg of each antibody was denatured and reduced with 7.0 M guanidine.HCl, 6 mM dithiothreitol (DTT) in 0.2 M tris buffer (pH 7.5) at 37° C. for 30 minutes. Each denatured/reduced sample was alkylated with 14 mM iodoacetic acid at 25° C. for 25 minutes, followed by quenching the reaction by adding 8 mM DTT. […] The buffer-exchanged sample was incubated at 37° C. with 3.5 μg trypsin for 60 minutes. Digestion was quenched by adding 2.2 μL of 10% acetic acid. About 12-17 μg of digested antibody was injected for analysis.
The digested antibody was analyzed using an Agilent 1260 HPLC system directly connected to a Thermo Scientific LTQ-Orbitrap Elite mass spectrometer (Thermo Fisher Scientific Inc., Rockford, Ill.). Proteolytic peptides were separated on a Waters BEH 300 C18 column (Waters Corporation, Milford, Mass.) 2.1×150 mm, 1.7μ particle at 40° C. with a flow rate of 0.2 mL/min. Mobile phase A was 0.02% TFA in water and mobile phase B was 0.018% TFA in acetonitrile. Peptides were eluted with a gradient of 0.5-40% B in 90 minutes, followed by column washing and re-equilibration. Mass spectrometer was set up for a full MS scan in the orbitrap with 120,000 resolution followed by five data-dependent CID MS/MS scans in the linear trap with dynamic exclusion.

[3] = tested on: Cell line H (CHO cells expressing recombinant antibody); settings: spermine tetrahydrochloride 0, 7, 17, 35 and 100 μM; day 5 samples; FIG. 6
Protocol: Samples were collected on day 5 of the mock perfusion assay. The 35 μM sample served as a control.
An arginine-free formulation of a perfusion media was used for small scale mock perfusion Experiment #3 (arginine concentration studies) according to the experimental design. In small scale mock perfusion Experiment #4 all arginase inhibitors were added to a perfusion media.
Briefly, the CHO cells were seeded in the plate at the targeted density ranging from 10-20×10^6 cells/mL with 3 mL working volume for each well. The cells were cultivated at 36° C., 5% CO2, 85% relative humidity and shaken at 225 rpm in a 50-mm orbital diameter Kuhner incubator (Kuhner AG, Basel, Switzerland) for 3 or 4 days. Every 24 hours, the cells were centrifuged at 200×g for 5 minutes (Beckman Coulter, Brea, Calif.) to collect the spent media and each well was then replenished with 3 mL of fresh media. The collected spent media were analyzed for titer, key metabolites and % high mannose (% HMN) (when necessary). Cells were then harvested and cell counts and viability were measured.
Five different concentrations of spermine were tested in this study. […] The perfusion medium containing 35 μM spermine acted as a control.

[4] = tested on: Cell line H (CHO cells expressing recombinant antibody); settings: reduction/depletion of spermine in perfusion medium (0-100 μM)
[5] = first series: four arginase inhibitors at 1, 10 and 20 μM vs inhibitor-free control, FIG. 10
[6] = second series: BEC 0, 10 μM, 0.5 mM, DL-α 0, 10 μM, 1.0 mM, 2.0 mM in perfusion medium, FIG. 11

## Cl.NCCC[C@](N)(C(=O)O)C(F)F (racemic) [DL-α, DL-α, Diflouromethylornithine Hydrochloride]
[1]; [5]
  % HM (high mannose glycoform content): most effective in decreasing % HM
[1]; [6]
  % HM (high mannose glycoform content): % HM was decreased as both inhibitor concentrations increased

## Cl.N=C(N)NCCC[C@H](N)C(=O)O [arginine, arginine monohydrochloride]
[1]; arginine 3.686, 1.843 (control), 1.38, 0.92 and 0.46 g/L in perfusion medium, FIG. 9
  % HM (high mannose glycoform content): as the arginine concentration is increased the % HM increased

## Cl.NCCC[C@H](N)C(=O)O [ornithine, L-ornithine monohydrochloride]
[2]
  % HMN (high mannose glycoform content): as the ornithine concentration is increased the % HMN increased

## Cl.Cl.Cl.Cl.NCCCNCCCCNCCCN [spermine, spermine tetrahydrochloride]
[1]; spermine tetrahydrochloride 0, 7, 17, 35 (control) and 100 μM in perfusion medium, day 5 samples, FIG. 5
  % HMN (high mannose glycoform content): as the spermine concentration was reduced, the % HMN decreased
[3]
  amount of ornithine (extracellular): the amount of ornithine decreased with a decrease in spermine concentration
[4]
  Titer: not affected

## S-(2-boronoethyl)-1-cysteine [BEC]
[1]; [5]
  % HM (high mannose glycoform content): most effective in decreasing % HM
[1]; [6]
  % HM (high mannose glycoform content): % HM was decreased as both inhibitor concentrations increased
